Laboratory results published in publication PMC5473928 (Scientific Reports, 2017).
Like-named read-outs stand apart in the source and are kept apart here.

Columns and labels:
KRasWT = target: T1, KRasWT (Homo sapiens, UniProt P01116); assay: Stopped-flow competition binding of nucleotides to nucleotide-free KRas (mantdGDP or mantdGDPβMe fluorescence, global fit); settings: for koff: read-out: dissociation rate constant (koff)
T1 construct: His6 (cleaved yes); made in house
Protocol: A method which leads to estimates of the kinetic parameters as well as the affinity involves stopped-flow measurements of association of fluorescent nucleotides with nucleotide-free Ras followed by competiton between fluorescent and non-fluorescent nucleotides to obtain the parameters for the non-labelled substances.
(§1) All stopped-flow experiments were performed in a SX-20 stopped-flow apparatus (Applied Photophysics) at 25 °C in a buffer consisting of 20 mM Hepes pH 7.5, 100 mM NaCl, 1 mM TCEP, 2 mM MgCl2 (excitation with 360 nm LED, emission detection with a 420 nm cut-off filter).

HRasF28L = system: HRasF28L; design: method as in PMID 1894650; settings: HRasF28L mutant; cited from earlier work
KRas = system: KRas; design: method as in PMID 8419371; settings: Mg^2+ reduced from a physiologically realistic value to 0.1 µM; cited from earlier work
HRas = system: HRas; design: method as in PMID 2200519; settings: cited from earlier work; for dissociation rate constant (koff): value reported for HRas; for Kd: weakly bound competitor of mantdGDP
KRasG12C [1] = target: T2, KRasG12C (Homo sapiens, UniProt P01116, C118S/C51S/C80L/G12C); assay: ESI-MS monitoring of the covalent reaction with KRasG12C; type: biochemical
T2 construct: KRas1–169 G12C C51S C80L C118S were cloned into a modified pET19 expression vector; His6 (cleaved yes); made in house
Protocol: An independent confirmation of the rapid covalent reaction of SML-8-73-1 with KRasG12C was obtained by mixing the compound with the nucleotide-free protein followed by ESI-MS.
In order to test the predictions arising from the simulations in the case of SML-8-73-1, we have performed a number of semi-quantitative experiments using mass spectrometric analysis.
To allow comparison with published work, further experiments were performed at 37°. In the first experiment, the conditions described by Hunter et al.[21] were duplicated (15 µM KRasG12C, 150 µM SML-8-73-1, no added Mg^2+ ions).
In this case, there was very rapid generation of the covalent adduct, so that the first time of measurement (designated as time zero in the figure, but in practice after ca. 10 min), the reaction was practically complete (Fig. S3F).
The covalent reaction of SML-8-73-1 with KRasG12C was monitored by mass spectrometry. 200 µM SML-8-73-1 was added to the nucleotide-free protein (50 µM), 5 mM dithioerythritol (DTE) was added after ~20 s and the extent of modification monitored by ESI-MS.
For the measurements described in Fig. S3, KRasG12C and SML 8-73-1 were incubated in 20 mM HEPES pH 7.5 and 50 mM NaCl. The conditions are as mentioned in the figure. For each time point, the reaction was stopped by the addition of DTT (to 5 mM final concentration) and acetonitrile (to 25%).

KRasG12C [2] = target: T2, KRasG12C; settings: cited from earlier work
KRasG12C [3] = target: T2, KRasG12C; assay: Stopped-flow competition binding and covalent reaction with nucleotide-free KRasG12C (mantdGDPβMe fluorescence, global fit); settings: 25 °C
Protocol: as §1

KRas / SOS564–1049 = target: T3, KRas / SOS564–1049 (Homo sapiens, UniProt P01116); assay: SOS catalyzed nucleotide exchange on KRas:nucleotide complexes, stopped-flow, excess SOS (Fig. 3A); type: biochemical; settings: not reached in SOS range used; from numerical simulations
T3 construct: His6 (cleaved yes); made in house
Protocol: as §1

[4] = KRasWT, 25 °C, global fit of stopped-flow competition, read-out: association rate constant (kon)
[5] = read-out: association rate constant (kon)
[6] = KRasWT, 25 °C, global fit of stopped-flow competition

Compound `Nc1nc2c(ncn2C2OC(COP(=O)(O)OP(=O)(O)O)C(O)C2O)c(=O)[nH]1` (stereo not drawn) [GDP] has a kon (KRasWT; [4]) of 8.2e+06 M⁻¹ s⁻¹, a Kd (KRasWT; read-out: Kd) of 0.02 nM and a kon (KRasWT; read-out: association rate constant (binding scheme, Fig. 1A)) of 8.7e+06 ± 40000 M⁻¹ s⁻¹. The “factor of increase of the rate constant for GDP dissociation” value (HRasF28L) was “ca. 140”, the “factor of acceleration of GDP release” value (KRas) was “more than 200” and the “dissociation rate constant (koff)” value (HRas) was “ca. 10^−4 s^−1”.

With `COP(=O)(O)OP(=O)(O)OCC1OC(n2cnc3c(=O)[nH]c(N)nc32)C(O)C1O` (stereo not drawn) [GDPβMe, β-methyl ester of GDP] the Kd (KRasWT) was 130 nM, the “inhibition of mantdGDP binding at equilibrium” value (KRasWT; 3x excess of GDPβMe over mantdGDP) was “no significant inhibition” and the “affinity of KRas relative to GDP” value (KRasWT; from similar kon and faster koff) was “ca. 4 orders of magnitude lower”. For the same compound, the “release rate relative to GDP” value (KRasWT; koff of GDPβMe vs koff of GDP) was “approximately 10^4 times faster”, the kon (KRasWT; [5]) was 5.8e+06 M⁻¹ s⁻¹ and the koff (KRasWT) was 0.8 s⁻¹.

In the case of `Nc1nc2c(ncn2[C@@H]2O[C@H](COP(=O)(O)O)[C@@H](O)[C@H]2O)c(=O)[nH]1` [GMP], the Kd (HRas) is listed as 29000 nM.

In the case of `Nc1nc2c(ncn2[C@@H]2O[C@H](COP(=O)(O)OP(=O)(O)OCCNC(=O)CCl)[C@@H](O)[C@H]2O)c(=O)[nH]1` [SML-8-73-1], the “period over which covalent modification occurred” value (KRasG12C [1]; 200 µM SML-8-73-1, 50 µM nucleotide-free KRasG12C, DTE quench) is reported as “tens of seconds to minutes”, the “extent of covalent reaction after 52 h” value (KRasG12C [1]; 25°, simulation conditions (20 µM inhibitor, 400 µM GTP, 40 µM GDP) but 10 µM KRas, Fig. S3A) is reported as “almost no reaction” and the “time to 50% reaction” value (KRasG12C [1]; 37°, 15 µM KRasG12C, 150 µM SML-8-73-1, no added Mg^2+ (ca. 20 µM free), Fig. S3B) is reported as 1 to 2 h. The “extent of covalent reaction after 51 h” value (KRasG12C [1]; 37°, 1.5 mM each of GTP and GTP and 3 mM Mg^2+, Fig. S3E) was “a few percent”, the kon (KRasWT; [4]) was 7.4e+06 M⁻¹ s⁻¹ and the koff (KRasWT; [6]) was 1 s⁻¹. For the same compound, the “rate constant for the covalent reaction” value (KRasG12C [2]) was 0.014 s⁻¹, the Kd (KRasG12C [2]; read-out: Kd for the reversible binding step) was 9 nM and the kon (KRasG12C [3]; [5]) was 4.1e+06 M⁻¹ s⁻¹. For the same compound, the koff (KRasG12C [3]; read-out: dissociation rate constant (koff)) was 0.9 s⁻¹ and the kinact (KRasG12C [3]; read-out: rate constant for the covalent reaction (kinact)) was 0.1 s⁻¹.

Compound `Nc1nc2c(ncn2COCCOP(=O)(O)OP(=O)(O)OP(=O)(O)O)c(=O)[nH]1` [acyclovir triphosphate] has a kon (KRasWT; [4]) of 1.29e+07 M⁻¹ s⁻¹, a koff (KRasWT; [6]) of 0.1 s⁻¹ and a Kd (KRasWT; read-out: Kd) of 8.5 nM.

For `Nc1nc2c(ncn2[C@@H]2O[C@H](CO)[C@@H](O)[C@H]2O)c(=O)[nH]1` [guanosine], the Kd (HRas) is listed as 153000 nM.

For `CNc1ccccc1C(=O)O[C@H]1C[C@H](n2cnc3c(=O)[nH]c(N)nc32)O[C@@H]1COP(=O)(O)OP(=O)(O)O` [mantdGDP], the “association rate constant (kon)” value (KRasWT; [6]) is listed as 3.2e+06 M⁻¹ s⁻¹ and the “dissociation rate constant (koff)” value (HRas) is listed as “ca. 10^−4 s^−1”.

For `CNc1ccccc1C(=O)O[C@H]1C[C@H](n2cnc3c(=O)[nH]c(N)nc32)O[C@@H]1COP(=O)(O)OP(=O)(O)OC` [mantdGDPβMe], the “association rate constant (kon)” value (KRasWT; [6]) was 4.9e+06 M⁻¹ s⁻¹, the “dissociation rate constant (koff)” value (KRasWT; [6]) was 0.4 s⁻¹ and the “maximal (limiting) rate constant for nucleotide release by SOS” value (KRas / SOS564–1049) was over 5 s⁻¹.
